Experiments:
[1] = test system: mRNA expressed from the genes (A) to (D) in rat liver; experiment: Behavior of genes (mRNA expression level, oligo-DNA microarray) in rat liver after 28-day oral administration; type: in vivo; settings: for Behavior of gene caused by administration of chemical substance, Gene No. 4846 / Behavior of gene caused by administration of chemical substance, Gene No. 2026 / Behavior of gene caused by administration of chemical substance, Gene No. 4218 / Behavior of gene caused by administration of chemical substance, Gene No. 6182 / Behavior of gene caused by administration of chemical substance, Gene No. 5600: gene group (A); for Behavior of gene caused by administration of chemical substance, Gene No. 4846: Unigene No. Rn.144554; for Behavior of gene caused by administration of chemical substance, Gene No. 2026 / Behavior of gene caused by administration of chemical substance, Gene No. 4218: Unigene No. Rn.167075; for Behavior of gene caused by administration of chemical substance, Gene No. 6182: Unigene No. Rn.5834; for Behavior of gene caused by administration of chemical substance, Gene No. 5600: Unigene No. Rn.9836; for Behavior of gene caused by administration of chemical substance, Gene No. 1494 / Behavior of gene caused by administration of chemical substance, Gene No. 2045 / Behavior of gene caused by administration of chemical substance, Gene No. 2203: gene group (B); for Behavior of gene caused by administration of chemical substance, Gene No. 1494: Unigene No. Rn.1430; for Behavior of gene caused by administration of chemical substance, Gene No. 2045: Unigene No. Rn.19329; for Behavior of gene caused by administration of chemical substance, Gene No. 2203: Unigene No. Rn.21240; for Behavior of gene caused by administration of chemical substance, Gene No. 533 / Behavior of gene caused by administration of chemical substance, Gene No. 725 / Behavior of gene caused by administration of chemical substance, Gene No. 1163 / Behavior of gene caused by administration of chemical substance, Gene No. 4973 / Behavior of gene caused by administration of chemical substance, Gene No. 4095 / Behavior of gene caused by administration of chemical substance, Gene No. 1334 / Behavior of gene caused by administration of chemical substance, Gene No. 6620 / Behavior of gene caused by administration of chemical substance, Gene No. 6303 / Behavior of gene caused by administration of chemical substance, Gene No. 5878 / Behavior of gene caused by administration of chemical substance, Gene No. 1131 / Behavior of gene caused by administration of chemical substance, Gene No. 1562 / Behavior of gene caused by administration of chemical substance, Gene No. 1741 / Behavior of gene caused by administration of chemical substance, Gene No. 893 / Behavior of gene caused by administration of chemical substance, Gene No. 6026 / Behavior of gene caused by administration of chemical substance, Gene No. 154 / Behavior of gene caused by administration of chemical substance, Gene No. 1993 / Behavior of gene caused by administration of chemical substance, Gene No. 813 / Behavior of gene caused by administration of chemical substance, Gene No. 2494 / Behavior of gene caused by administration of chemical substance, Gene No. 2546 / Behavior of gene caused by administration of chemical substance, Gene No. 3776 / Behavior of gene caused by administration of chemical substance, Gene No. 3929 / Behavior of gene caused by administration of chemical substance, Gene No. 1119 / Behavior of gene caused by administration of chemical substance, Gene No. 6742 / Behavior of gene caused by administration of chemical substance, Gene No. 5634: gene group (C); for Behavior of gene caused by administration of chemical substance, Gene No. 533: Unigene No. Rn.106184; for Behavior of gene caused by administration of chemical substance, Gene No. 725: Unigene No. Rn.108075; for Behavior of gene caused by administration of chemical substance, Gene No. 1163: Unigene No. Rn.11766; for Behavior of gene caused by administration of chemical substance, Gene No. 4973: Unigene No. Rn.118529; for Behavior of gene caused by administration of chemical substance, Gene No. 4095: Unigene No. Rn.119024; for Behavior of gene caused by administration of chemical substance, Gene No. 1334 / Behavior of gene caused by administration of chemical substance, Gene No. 6620: Unigene No. Rn.120914; for Behavior of gene caused by administration of chemical substance, Gene No. 6303: Unigene No. Rn.123063; for Behavior of gene caused by administration of chemical substance, Gene No. 5878: Unigene No. Rn.143213; for Behavior of gene caused by administration of chemical substance, Gene No. 1131: Unigene No. Rn.144946; for Behavior of gene caused by administration of chemical substance, Gene No. 1562: Unigene No. Rn.14744; for Behavior of gene caused by administration of chemical substance, Gene No. 1741: Unigene No. Rn.1647; for Behavior of gene caused by administration of chemical substance, Gene No. 893: Unigene No. Rn.164817; for Behavior of gene caused by administration of chemical substance, Gene No. 6026: Unigene No. Rn.167685; for Behavior of gene caused by administration of chemical substance, Gene No. 154: Unigene No. Rn.185941; for Behavior of gene caused by administration of chemical substance, Gene No. 1993: Unigene No. Rn.18728; for Behavior of gene caused by administration of chemical substance, Gene No. 813: Unigene No. Rn.201760; for Behavior of gene caused by administration of chemical substance, Gene No. 2494: Unigene No. Rn.23969; for Behavior of gene caused by administration of chemical substance, Gene No. 2546: Unigene No. Rn.24561; for Behavior of gene caused by administration of chemical substance, Gene No. 3776: Unigene No. Rn.43232; for Behavior of gene caused by administration of chemical substance, Gene No. 3929: Unigene No. Rn.4620; for Behavior of gene caused by administration of chemical substance, Gene No. 1119: Unigene No. Rn.9757; for Behavior of gene caused by administration of chemical substance, Gene No. 6742: Unigene No. Rn.9779; for Behavior of gene caused by administration of chemical substance, Gene No. 5634: Unigene No. Rn.9862; for Behavior of gene caused by administration of chemical substance, Gene No. 5726: gene group (D), Unigene No. Rn.9939
Summary of the method: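 Liver mRNA measured by oligo-DNA microarray after 28 days of once-daily oral gavage in 5-week-old male F344 rats (n=4 per group), with vehicle controls given equal solvent volume. Significance threshold: 1.5-fold up or down versus control, with changes opposite in direction to other carcinogens counted as not significant.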

rodent = settings: in vivo; cited from earlier work
liver = settings: in vivo; cited from earlier work

## ClC1=C(Cl)C2(Cl)C3C4C=CC(C4)C3C1(Cl)C2(Cl)Cl (stereo not shown) [TS015, Aldrin]
[1]; mRNA vs vehicle control group
  Behavior of gene caused by administration of chemical substance, Gene No. 4846: −
  Behavior of gene caused by administration of chemical substance, Gene No. 2026: −
  Behavior of gene caused by administration of chemical substance, Gene No. 4218: −
  Behavior of gene caused by administration of chemical substance, Gene No. 6182: +
  Behavior of gene caused by administration of chemical substance, Gene No. 5600: −
  Behavior of gene caused by administration of chemical substance, Gene No. 1494: −
  Behavior of gene caused by administration of chemical substance, Gene No. 2045: +
  Behavior of gene caused by administration of chemical substance, Gene No. 2203: +
  Behavior of gene caused by administration of chemical substance, Gene No. 533: −
  Behavior of gene caused by administration of chemical substance, Gene No. 725: −
  Behavior of gene caused by administration of chemical substance, Gene No. 1163: −
  Behavior of gene caused by administration of chemical substance, Gene No. 4973: −
  Behavior of gene caused by administration of chemical substance, Gene No. 4095: −
  Behavior of gene caused by administration of chemical substance, Gene No. 1334: −
  Behavior of gene caused by administration of chemical substance, Gene No. 6620: −
  Behavior of gene caused by administration of chemical substance, Gene No. 6303: −
  Behavior of gene caused by administration of chemical substance, Gene No. 5878: −
  Behavior of gene caused by administration of chemical substance, Gene No. 1131: −
  Behavior of gene caused by administration of chemical substance, Gene No. 1562: −
  Behavior of gene caused by administration of chemical substance, Gene No. 1741: −
  Behavior of gene caused by administration of chemical substance, Gene No. 893: −
  Behavior of gene caused by administration of chemical substance, Gene No. 6026: −
  Behavior of gene caused by administration of chemical substance, Gene No. 154: −
  Behavior of gene caused by administration of chemical substance, Gene No. 1993: −
  Behavior of gene caused by administration of chemical substance, Gene No. 813: −
  Behavior of gene caused by administration of chemical substance, Gene No. 2494: +
  Behavior of gene caused by administration of chemical substance, Gene No. 2546: −
  Behavior of gene caused by administration of chemical substance, Gene No. 3776: −
  Behavior of gene caused by administration of chemical substance, Gene No. 3929: −
  Behavior of gene caused by administration of chemical substance, Gene No. 1119: −
  Behavior of gene caused by administration of chemical substance, Gene No. 6742: −
  Behavior of gene caused by administration of chemical substance, Gene No. 5634: −
  Behavior of gene caused by administration of chemical substance, Gene No. 5726: −
rodent
  Carcinogenicity: C+
liver
  Liver carcinogenicity: Cr−

## ClC1=C(Cl)[C@]2(Cl)[C@@H]3[C@@H]4C[C@@H]([C@H]5O[C@@H]45)[C@@H]3[C@@]1(Cl)C2(Cl)Cl [TS017, Dieldrin]
[1]
  Behavior of gene caused by administration of chemical substance, Gene No. 4846: −
  Behavior of gene caused by administration of chemical substance, Gene No. 2026: −
  Behavior of gene caused by administration of chemical substance, Gene No. 4218: −
  Behavior of gene caused by administration of chemical substance, Gene No. 6182: +
  Behavior of gene caused by administration of chemical substance, Gene No. 5600: −
  Behavior of gene caused by administration of chemical substance, Gene No. 1494: +
  Behavior of gene caused by administration of chemical substance, Gene No. 2045: +
  Behavior of gene caused by administration of chemical substance, Gene No. 2203: +
  Behavior of gene caused by administration of chemical substance, Gene No. 533: +
  Behavior of gene caused by administration of chemical substance, Gene No. 725: −
  Behavior of gene caused by administration of chemical substance, Gene No. 1163: −
  Behavior of gene caused by administration of chemical substance, Gene No. 4973: −
  Behavior of gene caused by administration of chemical substance, Gene No. 4095: −
  Behavior of gene caused by administration of chemical substance, Gene No. 1334: −
  Behavior of gene caused by administration of chemical substance, Gene No. 6620: −
  Behavior of gene caused by administration of chemical substance, Gene No. 6303: −
  Behavior of gene caused by administration of chemical substance, Gene No. 5878: −
  Behavior of gene caused by administration of chemical substance, Gene No. 1131: −
  Behavior of gene caused by administration of chemical substance, Gene No. 1562: −
  Behavior of gene caused by administration of chemical substance, Gene No. 1741: −
  Behavior of gene caused by administration of chemical substance, Gene No. 893: −
  Behavior of gene caused by administration of chemical substance, Gene No. 6026: −
  Behavior of gene caused by administration of chemical substance, Gene No. 154: −
  Behavior of gene caused by administration of chemical substance, Gene No. 1993: −
  Behavior of gene caused by administration of chemical substance, Gene No. 813: −
  Behavior of gene caused by administration of chemical substance, Gene No. 2494: −
  Behavior of gene caused by administration of chemical substance, Gene No. 2546: −
  Behavior of gene caused by administration of chemical substance, Gene No. 3776: −
  Behavior of gene caused by administration of chemical substance, Gene No. 3929: −
  Behavior of gene caused by administration of chemical substance, Gene No. 1119: −
  Behavior of gene caused by administration of chemical substance, Gene No. 6742: −
  Behavior of gene caused by administration of chemical substance, Gene No. 5634: −
  Behavior of gene caused by administration of chemical substance, Gene No. 5726: −
rodent
  Carcinogenicity: C+
liver
  Liver carcinogenicity: Cr−
